Tests used:
[1] = tested on: D. immitis L3-L4 larval Wolbachia in NSG mice; experiment: In vivo D. immitis larvae mouse assay (Example 3A); conditions: for D. immitis L4 Efficacy (median % reduction Wolbachia): larvae retrieved 2 weeks after infection
[2] = tested on: D. immitis mf Wolbachia; experiment: In vitro D. immitis microfilariae assay (Wolbachia wsp copy number by qPCR); assay type: cell-based; conditions: six-day continuous exposure in vitro
[3] = tested on: D. immitis L3-L4 larval Wolbachia in NSG mice; experiment: In vivo D. immitis larvae mouse assay (Example 3B); conditions: for n larvae depleted ≥50% (number/total) / n larvae depleted ≥50% (percentage of larvae): oral 200 mpk bid x 1; for D. immitis L4 Efficacy (median % reduction Wolbachia): oral 200 mpk bid x 1 (single day dosing), larvae retrieved 2 weeks after infection
[4] = tested on: D. immitis L4 Wolbachia; experiment: In vitro D. immitis L4 larvae assay (Wolbachia wsp copy number by qPCR); assay type: cell-based; conditions: for D. immitis L4 Efficacy (median % reduction Wolbachia): six-day continuous exposure in vitro

In the case of C[C@H]1COCCN1c1nc(NCc2cccnc2C(F)(F)F)c2cccnc2n1 [Compound A, (S)-2-(3-methylmorpholino)-N-((2-(trifluoromethyl)pyridin-3-yl)methyl)pyrido[2,3-d]pyrimidin-4-amine], the “n larvae depleted ≥80% (number/total)” value ([1]; oral 200 mpk bid x 2) is reported as 10/11, the “n larvae depleted ≥80% (percentage of larvae)” value ([1]; oral 200 mpk bid x 2) is reported as “(90.9%)” and the “D. immitis L4 Efficacy (median % reduction Wolbachia)” value ([1]; oral 200 mpk bid x 2 (days 1-2), 200 mg/kg) is reported as 89.7%. The “D. immitis mf Efficacy (median % reduction Wolbachia)” value ([2]; 50 nM) was 64.1%, the “D. immitis mf Efficacy (median % reduction Wolbachia)” value ([2]; 200 nM) was 88.8% and the “D. immitis mf Efficacy (median % reduction Wolbachia)” value ([2]; 5000 nM) was 96.0%. For the same molecule, the “n larvae depleted ≥50% (number/total)” value [3] was 4/5, the “n larvae depleted ≥50% (percentage of larvae)” value [3] was “(80%)” and the “D. immitis L4 Efficacy (median % reduction Wolbachia)” value ([3]; 200 mg/kg) was 52.1%.

FC1(F)CCN(c2nc(NCc3ccccc3C(F)(F)F)c3cccnc3n2)CC1 [Compound C, 2-(4,4-difluoropiperidin-1-yl)-N-(2-(trifluoromethyl)benzyl)pyrido[2,3-d]pyrimidin-4-amine] was tested, and the “n larvae depleted ≥50% (number/total)” value [3] was 2/3, the “n larvae depleted ≥50% (percentage of larvae)” value [3] was “(67%)” and the “D. immitis L4 Efficacy (median % reduction Wolbachia)” value [3] was 61.7%.

In the case of FC(F)(F)OC1CCN(c2nc(NCc3cccnc3C(F)(F)F)c3cccnc3n2)CC1 [Compound D, 2-(4-(trifluoromethoxy)piperidin-1-yl)-N-((2-(trifluoromethyl)pyridin-3-yl)methyl)pyrido[2,3-d]pyrimidin-4-amine], the “n larvae depleted ≥50% (number/total)” value [3] is reported as 8/12, the “n larvae depleted ≥50% (percentage of larvae)” value [3] is reported as “(67%)” and the “D. immitis L4 Efficacy (median % reduction Wolbachia)” value [3] is reported as 53.6%.

C[C@H]1c2cccc(O)c2C(=O)C2=C(O)[C@]3(O)C(=O)C(C(N)=O)=C(O)[C@@H](N(C)C)[C@@H]3[C@@H](O)[C@@H]21 [Doxycycline, doxycycline, reference compound] was tested, and the “n larvae depleted ≥80% (number/total)” value ([1]; oral 50 mpk qd x 7) was 4/9, the “n larvae depleted ≥80% (percentage of larvae)” value ([1]; oral 50 mpk qd x 7) was “(44.4%)” and the “D. immitis L4 Efficacy (median % reduction Wolbachia)” value ([1]; oral 50 mpk qd x 7 (days 1-7 post-infection)) was 69.6%. For the same molecule, the “D. immitis mf Efficacy (median % reduction Wolbachia)” value ([2]; 50 nM) was 10.0%, the “D. immitis mf Efficacy (median % reduction Wolbachia)” value ([2]; 5000 nM) was 58.8% and the “D. immitis L4 Efficacy (median % reduction Wolbachia)” value ([4]; 5000 nM) was 65.9%.

With CC1(C)CCN(c2nc(NCc3cccnc3C(F)(F)F)c3cccnc3n2)CC1 [Compound B, 2-(4,4-dimethylpiperidin-1-yl)-N-((2-(trifluoromethyl)pyridin-3-yl)methyl)pyrido[2,3-d]pyrimidin-4-amine] the “D. immitis mf Efficacy (median % reduction Wolbachia)” value ([2]; 0.5 nM) was 63.9%, the “D. immitis mf Efficacy (median % reduction Wolbachia)” value ([2]; 50 nM) was 53.6% and the “D. immitis L4 Efficacy (median % reduction Wolbachia)” value ([4]; 1 nM) was 45.4%. The “D. immitis L4 Efficacy (median % reduction Wolbachia)” value ([4]; 10 nM) was 50.7%, the “D. immitis L4 Efficacy (median % reduction Wolbachia)” value ([4]; 50 nM) was 57.4% and the “Wolbachia depletion in D. immitis L4” value ([4]; doses between 50-10 nM, in vitro) was greater than 50%.

— US20240108629A1, “AZAQUINAZOLINE DERIVATIVES FOR USE IN TREATING OR PREVENTING DIROFILARIA INFECTION IN A MAMMAL” (Liverpool School of Tropical Medicine, priority 2021, published 2024)
